From patent US11800867B2, “Methods of repelling biting arthropods, reducing pathogen spread and treating arthropod infestation” (priority 2016, dated 2023) come the findings set out here.

One assay deals with Ae. aegypti mosquitoes. The assay is described as follows: Continuous exposure to treated filter paper, knockdown and mortality (Example 3). The format is in vivo, Aedes aegypti. The conditions noted are these: 1% nootkatone in ethanol on filter paper. Here is the method: In the following example, the effectiveness of a 1% nootkatone composition in killing Ae. aegypti mosquitoes was determined.
A composition of 1% nootkatone formulated in ethanol was added to filter paper, which was then introduced into a Fluon®-coated container. Ten Ae. aegypti mosquitoes were added to the container and observed at 30 min, 1, 4, and 24 hr. Five replicates were performed. […] An untreated population was observed as a negative control.

Assay [1] concerns female Aedes aegypti mosquitoes. The assay is described as follows: In vitro membrane feeder repellency assay, probing of treated collagen membranes (Example 2). Format: in vivo. The conditions noted are these: for Percent repellency: 25 μL on collagen membrane, twenty minutes, average ± SE, n = 5. The source says:
(§1) A laboratory trial was required to evaluate the repellency of 1% Nootkatone against female Aedes aegypti, Culex quinquefasciatus, and Anopheles quadrimaculatus mosquitoes using an in vitro method.
(§2) Female adult laboratory reared Aedes aegypti, Culex quinquefasciatus, and Anopheles quadrimaculatus mosquitoes (susceptible) were obtained from Benzon Research in Carlisle, Pa. 250 mosquitoes were used per replicate (5 replicates per test, per species). Adult mosquitoes were 3-8 days old.
(§3) Nootkatone was diluted in ethanol and acetone (note that Nootkatone diluted in acetone was not tested against An. quadrimaculatus). A positive control consisting of 20% DEET in ethanol was prepared using stock solutions. Negative controls consisted of no treatment, and ethanol-only treatment.
(§4) The treatments were applied directly to prepared collagen membranes by pipetting 25 μL of the appropriate substance onto a membrane and spreading it evenly with the tip of the pipette.
(§5) Exposure container. A 30.5 cm×30.5 cm×30.5 cm rigid plastic frame supported by four, 4 cm high legs, with a sleeved entry on one side and a sliding door on the bottom.
(§6) Membrane feeder. Five wells (3 cm in diameter×8 mm in depth) in line on a hollow plastic block (6 cm wide×22 cm long×3 cm deep), which fits through the sliding door in the bottom of the exposure container. Hoses attached to each side of the block circulate heated water that is pumped from a water bath. The sliding door in the bottom of the exposure container covers and uncovers the wells in the membrane feeder, allowing mosquitoes to access the wells.
(§7) Test set-up. The membrane feeder was connected to a heated water bath, and warm water passed through the feeder via a circulating pump so that the wells were warmed to 89-95° F. Seventy-two (72) mg of ATP (disodium salt) were added to 26 mL of warmed citrated bovine blood, which was poured into the wells until they were completely full.
(§8) The collagen membranes were placed on vacuum greased wax paper for treatment. They were then treated as described above and left for five minutes to dry. After they dried, the membranes were placed over each of the wells (using vacuum grease as an adhesive), completely covering the blood.
(§9) Exposure to mosquitoes. The mosquitoes were released into the exposure container just prior to exposure to the membranes. The exposure container was then placed on the membrane feeder and the sliding door opened, allowing the mosquitoes to access the wells. The number of mosquitoes probing each membrane was recorded every two minutes for twenty minutes.
(§10) The above procedures were repeated until five replicates were completed. A new batch of 250 female mosquitoes and fresh blood were used for each replicate, and the wells were cleaned in between replicates. The position of the treatments was rotated for each replicate, so that each treatment was tested on each of the five wells.
(§11) Percent repellency was calculated for each replicate using the total number of probes with the following formula:
(§12) [formula] • where C=the total number of probes on the untreated well • and T=the total number of probes on the treated well
(§13) Average percent repellency and standard error were then calculated across all five replicates. Shapiro-Wilks tests were conducted to determine the normality of the data, based on total number of probes per replicate. Depending on normality, student t-tests (with concurrent F-tests for variance) or Mann-Whitney tests were then used to determine significance between the treatments.

Assay [2] concerns female Culex quinquefasciatus mosquitoes. Described as above. The note with it: for Percent repellency: 25 μL on collagen membrane, twenty minutes, average ± SE, n = 5. Format: in vivo.
Source text: as §1, §2, §3, §4, §5, §6, §7, §8, §9, §10, §11, §12, §13

For assay [3], the system named is female Anopheles quadrimaculatus mosquitoes. The description is as above. Format: in vivo. The note with it: for Percent repellency: 1% Nootkatone in ethanol, 25 μL on collagen membrane, twenty minutes, average ± SE, n = 5.
Source text: as §1, §2, §3, §4, §5, §6, §7, §8, §9, §10, §11, §12, §13

In a further assay the test system is Aedes aegypti mosquitoes. The experiment in a line: Choice design repellency test, treated collagen membrane-covered wells filled with warm blood (Example 1). The format is in vivo. The conditions noted are these: 1% nootkatone compositions (ethanol and acetone based); probing recorded during 20 min. Here is the method: In the following example, the effectiveness of 1% nootkatone compositions in repelling mosquitoes was determined in comparison with DEET in a choice design test.
Compositions of 1% nootkatone were formulated in either ethanol or acetone and coated onto collagen membrane-covered wells filled with warm blood.
Two hundred and fifty female mosquitoes aged 4-8 days were sucrose deprived for 18 hr and then introduced to the collagen membrane-covered wells. Mosquito probing of the treated collagen membranes was recorded every 2 min during a 20 min period.
Five replicates were performed. A 20% DEET composition was used as a positive control and an ethanol only solution served as a negative control.

[4] abbreviates: 1% Nootkatone diluted in ethanol and in acetone.

“Also recorded” adds a separate entry of the source.

`C=C(C)[C@@H]1CCC2=CC(=O)C[C@@H](C)[C@]2(C)C1` [Nootkatone, nootkatone]: the “Knockdown rate after 1 hr relative to 30 min” value in the assay with Ae. aegypti mosquitoes (after 1 hr) is given as “more than doubled”. Further, the Knockdown rate result with Ae. aegypti mosquitoes (after 4 hr) is on record as “greater than 90%”. Further, in the assay with Ae. aegypti mosquitoes (continuous exposure), the “Exposure time after which mosquitoes begin to be affected” value turned out to be 30 min. In addition, the “Exposure time at which knockdown was complete (FIG. 5)” value in the assay on Ae. aegypti mosquitoes (continuous exposure) is less than 24 h. Besides, the “Average percent of mosquitoes affected (FIG. 3)” value in the assay on Ae. aegypti mosquitoes (continuous exposure 24 hr) is “All mosquitoes were affected”. Also, the “Protection compared with untreated or ethanol alone (significance, α=0.05)” value in assay [1] (setting [4]) and in assay [2] (setting [4]) was “significantly higher protection” throughout. Besides, the “Protection level compared with 20% DEET (significance, α=0.05)” value in assay [1] (setting [4]) and in assay [2] (setting [4]) was “not significantly different from 20% DEET” each time. In addition, the Percent repellency turned out to be 91.5 ± 2.1% in assay [1] (1% Nootkatone in acetone); 92.0 ± 3.4% in assay [1] (1% Nootkatone in ethanol); 80.1 ± 10.0% in assay [2] (1% Nootkatone in acetone); 83.8 ± 5.5% in assay [2] (1% Nootkatone in ethanol); 90.3% in assay [3]; 90.3 ± 5.3% in assay [3] (listed as Nootkatone (ethanol)). Besides, in assay [3] (1% nootkatone diluted in ethanol), the “Protection compared with ethanol alone (significance)” value is recorded as “not found to be significantly different from ethanol alone”. In addition, the “Average repellency compared with 20% DEET (FIG. 2)” value with Aedes aegypti mosquitoes is “repellency similar to that of 20% DEET; also recorded: comparable repellency”.
